Experimental data from patent US4183929A, “Tri-substituted triazines” (American Cyanamid Company, priority 1978, dated 1980).

What was measured:
activated human C1 = biological target: T1, activated human C1 (Homo sapiens, UniProt P09871); assay: Test, Code 026 (C1 inhibitor); assay type: biochemical; conditions: for Cl 026 Wells: Table I, twofold serial dilution, higher well number indicates higher activity; for In Vitro Activity Complment Inhibiting Activity (Wells) Code 026: Table II
T1 construct: fluid-phase human C2 consumption with C4 present
Text: (§1) An active inhibitor protects C2 from C1 and C4; (ii) Test, Code 035 (C3-C9 inhibitor) - This test determines the ability of the late components of human complement (C3-C9) to lyse EAC 142 in the presence of appropriate dilutions of the test compound. An active inhibitor protects EAC 142 from lysis by human C3-C9; (iii) Test, Code 036 (C-Shunt inhibitor) - In this test human erythrocytes rendered fragile are lysed in autologous serum via the shunt pathway activated by cobra venom factor in the presence of appropriate dilutions of the test compound. Inhibition of the shunt pathway results in failure of lysis; (iv) Forssman Vasculitis Test - Here, the well known complement dependent lesion, Forssman vasculitis, is produced in guinea pigs by intradermal injection of rabbit anti-Forssman antiserum. The lesion is measured in terms of diameter, edema and hemorrhage and the extent to which a combined index of these is inhibited by prior intraperitoneal injection of the test compound at 200 mg is then reported, unless otherwise stated; (v) Forssman Shock Test--Lethal shock is produced in guinea pigs by an i.v. injection of anti-Forssman antiserum and the harmonic mean death time of treated guinea pigs is compared with that of simultaneous controls; (vi) Complement Level Reduction Test - In this test, the above dosed guinea pigs, or others, are bled for serum and the complement level is determined in undiluted serum by the capillary tube method of U.S. Pat. No. 3,876,376 and compared to undosed control guinea pigs; and (vii) Cap 50 Test - Here, appropriate amounts of the test compound are added to a pool of guinea pig serum in vitro, after which the undiluted serum capillary tube assay referred to above is run. The concentration of compound inhibiting 50% is reported.

[1] = test system: late components of human complement (C3-C9); assay: Test, Code 035 (C3-C9 inhibitor), lysis of EAC 142; assay type: biochemical; conditions: Table I; twofold serial dilution
Text: as §1

shunt pathway = assay: Test, Code 036 (C-Shunt inhibitor), lysis of human erythrocytes via cobra venom factor activated shunt pathway; assay type: cell-based; conditions: Table I; twofold serial dilution
Text: An active inhibitor protects C2 from C1 and C4; (ii) Test, Code 035 (C3-C9 inhibitor) - This test determines the ability of the late components of human complement (C3-C9) to lyse EAC 142 in the presence of appropriate dilutions of the test compound. An active inhibitor protects EAC 142 from lysis by human C3-C9; (iii) Test, Code 036 (C-Shunt inhibitor) - In this test human erythrocytes rendered fragile are lysed in autologous serum via the shunt pathway activated by cobra venom factor in the presence of appropriate dilutions of the test compound. Inhibition of the shunt pathway results in failure of lysis; (iv) Forssman Vasculitis Test - Here, the well known complement dependent lesion, Forssman vasculitis, is produced in guinea pigs by intradermal injection of rabbit anti-Forssman antiserum. […]

[2] = test system: citrated sheep plasma (CSP); assay: In vitro anti-coagulant activity (AC) test; assay type: biochemical; conditions: for AC Wells: Table I, twofold serial dilution, recalcified citrated sheep plasma; for In Vitro Activity Anti-Coagulant Activity (Wells) AC: Table II
Description: The sheep RBC's, kept in suspension throughout the slotting incubation time, become enmeshed in the fibrin matrix if a clot forms. Upon centrifugation of the plate, untrapped RBC's form buttons, the sizes of which correspond to the degree of clot inhibition; this providing a measure of anti-coagulant activity (AC).

[3] = Intrinsic Therapeutic Index (ITI) from Code 026 and AC wells; conditions: Table II; for Logarithmic Difference Expressed As Wells: Code 026 wells minus AC wells (base 2); for Intrinsic Therapeutic Index: antilogarithm (base 2) of the difference of Code 026 and AC wells
Text: The computation of an Intrinsic Therapeutic Index (ITI) was devised to correlate the results expressed in wells obtained in the in vitro Code 026 (C1 inhibitor) test and the in vitro anti-coagulant (AC) test into a meaningful value which would aid in the net evaluation of the activity of the compounds of this invention.
The ITI is thus a measure of the separation of anti-complement and anti-coagulant activities; the higher the numerical value the more therapeutically useful the separation of activities.

T1 sequence (P09871 16-688): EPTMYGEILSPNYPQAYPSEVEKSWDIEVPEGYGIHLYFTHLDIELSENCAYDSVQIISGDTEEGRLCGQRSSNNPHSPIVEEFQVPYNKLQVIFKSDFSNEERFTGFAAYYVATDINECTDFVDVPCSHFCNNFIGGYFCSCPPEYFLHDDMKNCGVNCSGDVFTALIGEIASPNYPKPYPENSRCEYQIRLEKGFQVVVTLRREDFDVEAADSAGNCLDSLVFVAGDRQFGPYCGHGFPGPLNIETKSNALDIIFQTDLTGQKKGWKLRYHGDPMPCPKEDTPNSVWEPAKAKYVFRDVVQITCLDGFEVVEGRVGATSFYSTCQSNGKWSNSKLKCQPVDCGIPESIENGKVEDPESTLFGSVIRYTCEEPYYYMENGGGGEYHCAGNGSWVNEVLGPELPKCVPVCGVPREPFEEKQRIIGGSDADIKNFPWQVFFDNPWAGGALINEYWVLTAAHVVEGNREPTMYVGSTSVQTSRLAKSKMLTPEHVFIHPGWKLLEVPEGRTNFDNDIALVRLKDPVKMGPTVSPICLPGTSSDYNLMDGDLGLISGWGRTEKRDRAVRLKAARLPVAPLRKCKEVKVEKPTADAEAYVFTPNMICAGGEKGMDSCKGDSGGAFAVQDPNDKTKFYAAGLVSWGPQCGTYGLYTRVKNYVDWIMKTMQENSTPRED
T1 sequence (P00736 18-705 partner): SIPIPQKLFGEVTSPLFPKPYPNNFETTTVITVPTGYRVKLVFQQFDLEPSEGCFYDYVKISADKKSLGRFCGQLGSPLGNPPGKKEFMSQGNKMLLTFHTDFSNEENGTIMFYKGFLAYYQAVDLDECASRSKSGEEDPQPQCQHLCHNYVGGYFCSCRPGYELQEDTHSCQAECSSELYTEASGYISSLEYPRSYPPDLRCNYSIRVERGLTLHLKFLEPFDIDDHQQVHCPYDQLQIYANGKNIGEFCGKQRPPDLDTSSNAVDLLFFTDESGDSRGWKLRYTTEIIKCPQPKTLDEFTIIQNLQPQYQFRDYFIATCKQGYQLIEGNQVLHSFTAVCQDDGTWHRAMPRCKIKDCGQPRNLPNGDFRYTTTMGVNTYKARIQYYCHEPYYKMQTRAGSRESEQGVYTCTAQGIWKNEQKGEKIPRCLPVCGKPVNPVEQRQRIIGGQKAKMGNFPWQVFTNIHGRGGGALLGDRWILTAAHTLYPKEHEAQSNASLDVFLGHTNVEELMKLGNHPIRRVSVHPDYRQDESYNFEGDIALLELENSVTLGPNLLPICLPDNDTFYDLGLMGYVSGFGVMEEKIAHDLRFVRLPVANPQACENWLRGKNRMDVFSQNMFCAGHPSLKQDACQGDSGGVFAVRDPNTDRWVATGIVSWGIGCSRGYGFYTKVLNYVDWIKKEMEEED
T1 sequence (P02745 23-245 partner): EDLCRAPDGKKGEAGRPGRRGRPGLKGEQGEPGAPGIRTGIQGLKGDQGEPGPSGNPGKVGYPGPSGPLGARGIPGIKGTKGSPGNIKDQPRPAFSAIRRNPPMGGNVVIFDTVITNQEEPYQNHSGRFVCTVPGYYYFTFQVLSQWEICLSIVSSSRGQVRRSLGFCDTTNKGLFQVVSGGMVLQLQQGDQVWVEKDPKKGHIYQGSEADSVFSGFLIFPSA
T1 sequence (P02746 28-253 partner): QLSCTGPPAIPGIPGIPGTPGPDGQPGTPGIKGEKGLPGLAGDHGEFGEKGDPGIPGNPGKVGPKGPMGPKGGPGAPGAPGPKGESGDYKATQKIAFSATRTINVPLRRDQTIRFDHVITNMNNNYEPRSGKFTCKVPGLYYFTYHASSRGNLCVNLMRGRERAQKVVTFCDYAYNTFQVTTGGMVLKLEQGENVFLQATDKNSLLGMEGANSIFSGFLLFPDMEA
T1 sequence (P02747 29-245 partner): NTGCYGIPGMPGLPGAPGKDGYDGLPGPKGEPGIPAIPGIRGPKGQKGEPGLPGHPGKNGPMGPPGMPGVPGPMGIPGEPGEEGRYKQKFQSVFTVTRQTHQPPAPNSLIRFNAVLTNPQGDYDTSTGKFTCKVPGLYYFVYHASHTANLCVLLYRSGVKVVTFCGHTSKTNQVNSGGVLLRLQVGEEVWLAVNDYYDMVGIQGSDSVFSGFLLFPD

| Structure (SMILES) | Cl 026 Wells (activated human C1) | In Vitro Activity Complment Inhibiting Activity (Wells) Code 026 (activated human C1) | C-Late 035 Wells [1] | Shunt Inhibition 036 Wells (shunt pathway) | AC Wells [2] [Wells] | In Vitro Activity Anti-Coagulant Activity (Wells) AC [2] [Wells] | Logarithmic Difference Expressed As Wells [3] | Intrinsic Therapeutic Index [3] |
| --- | --- | --- | --- | --- | --- | --- | --- | --- |
| O=C(O)CN(CC(=O)O)c1nc(N(CC(=O)O)CC(=O)O)nc(N(CC(=O)O)CC(=O)O)n1 [(s-Triazine-2,4,6-triyltrinitrilo)hexaacetic acid] | +3 Wells | +3 Wells | N | N | -2 | -2 | +5 Wells | 32 |
| O=C([O-])c1cc(Nc2nc(Cl)nc(Nc3cc(C(=O)[O-])cc(C(=O)[O-])c3)n2)cc(C(=O)[O-])c1.[Na+].[Na+].[Na+].[Na+] [5,5'-[(6-Chloro-s-triazine-2,4-diyl)diimino]-diisophthalic acid tetrasodium salt] | +3 Wells | +3 Wells | N | N | < -2 | -2 | +5 Wells | 32 |
| O=C([O-])c1cc(Nc2nc(Nc3cc(C(=O)[O-])cc(C(=O)[O-])c3)nc(Nc3cc(C(=O)[O-])cc(C(=O)[O-])c3)n2)cc(C(=O)[O-])c1.[Na+].[Na+].[Na+].[Na+].[Na+].[Na+] [5,5',5"-(s-Triazine-2,4,6-triyltriimino)triisophthalic acid hexasodium salt] |  |  | N |  | -2 | -2 |  |  |
